Experimental data published in patent publication US10500198B2, “Bis-benzylidine piperidone proteasome inhibitor with anticancer activity” (The Johns Hopkins University, priority 2013, dated 2019).

What was measured:
RPN13 = biological target: T1, RPN13 (Homo sapiens, UniProt Q16186); experiment: Biotin labeling assay; assay type: binding; settings: cell lysate or purified RP, streptavidin-peroxidase blot
T1 construct: endogenous in cells; host or cells: HeLa, HS578T cell lysate
Procedure: FIGS. 10 A-10E show a series of graphs and immunoblots showing the effects of several compounds on cell viability and proteasome activity. […] 10B and 10C show immunoblots of the proteasome activity of cell lines treated with the indicated compounds. […] IC50 values were determined in triplicate. In FIG. 10B, HeLa cells were treated for 12 hr and the cell lysate was subjected to immunoblot analysis with anti-Ubiquitin antibody. In FIG. 10C, SiHa cells were treated with the indicated compounds for 12 hr and the lysate subjected to Western blot analysis with anti-Ubiquitin antibody. HeLa cell lysate was treated with RA190B, subjected to SDS-PAGE, and probed with streptavidin-peroxidase following protein transfer to a polyvinylidene difluoride (PVDF) membrane. The streptavidin-peroxidase bound to biotinylated cellular proteins, but a striking new band at 42 kDa appeared in RA190B-treated samples (FIG. 2A). […] IC50 values were determined in triplicate.
To eliminate the possibility that another RP component was required for RA190B interaction, RPN13 or an irrelevant protein (L2) was overexpressed in bacteria. Cell lysate harvested from bacteria either with or without […] induction of ectopic protein expression was labeled with RA190B and probed by blotting with streptavidin-peroxidase. RA190B reacted strongly with a 42 kDa protein only in lysates of bacteria expressing RPN13 (FIG. 2D). […] 800 μL fractions were collected and alternate fractions (1,3,5,7,9,11,13,15,17) were analyzed for the presence of proteasomal proteins (RPN13, RPN2, RPN1 and UCH37) by Western blot analysis.
Human cells (5×10^6 HeLa or 293TT cells) were lysed using MPER (Pierce) lysis buffer (500 μL). RPN13 or HPV L2 transformed bacterial cells (500 μL of culture) were centrifuged to harvest the cells which were re-suspended in 500 μL BPER (Pierce). Cell lysates were centrifuged at 10,000 rpm briefly (2 min) at 4° C. to remove cell debris. Lysate supernatant (200 μL) was pre cleared with streptavidin dyna beads (20 μL) for 1 h at 4° C. to remove non-specific biotin binding and incubated with compounds (indicated concentrations or 20 μM) at 4° C. for 1 hr. An equal amount of each sample (20 μL of lysate) was mixed with an equal volume of Laemmli sample buffer (20 μL) (BioRad) and was boiled for 5 min. […] (24 V). Membrane was blocked with 5% BSA in PBST for 1 hr at room temperature and washed for 20 min (3×PBST). Then the membrane was probed with HRP-streptavidin (1:10,000 in PBST) for 1 hr at room temperature and washed for 30 min (3×PBST) and developed using HyGLO chemiluminescent detection reagent (Denville) for biotin recognition. For the purified enzyme assay, 19S purified proteasome (R&D Systems, Cat. No. E-366) (500 ng) in 19S buffer (20 mM HEPES, 20 mM NaCl, 1 mM DTT, 15% Glycerol) was incubated with compounds (20 μM) for 1 hr at room temperature and mixed with an equal volume of Laemmli sample buffer (20 μL) (BioRad) and was boiled for 5 min. Each sample was loaded onto gel and followed the western blot protocol mentioned above.
Purified 19S proteasome (500 ng) was incubated with corresponding compounds for 30 min and subjected to immunoblot and probed with HRP-conjugated streptavidin. In FIG. 23, the single band at 42 KDa indicates Rpn13 binding to 195. RA183B (20 μM) is used as positive control for Rpn13 binding. Competition experiments were done with RA183 (100 μM) and RA195 (100 μM) along with RA195B (20 μM).

[1] = tested on: HCC 1806, HS578T, BT549 and MB-231 breast cancer cells; experiment: Viability of triple negative breast cancer cell lines; assay type: cell-based; settings: 48 hours
Procedure: To test the efficacy of various RA compound derivatives on the viability of breast cancer cells, breast cancer cell lines were treated in vitro with varying concentrations of selected compounds. […] FIGS. 16A-16E are a series of data graphs and a western blot showing the efficacy of select compounds against various breast cancer cell lines. […] Briefly HS578T cell lysate was incubated with corresponding compounds for the period of 1 hr at 4 C and subjected to Western blot analysis and probed for HRP-Streptavidin.

T1 sequence (Q16186 whole entry): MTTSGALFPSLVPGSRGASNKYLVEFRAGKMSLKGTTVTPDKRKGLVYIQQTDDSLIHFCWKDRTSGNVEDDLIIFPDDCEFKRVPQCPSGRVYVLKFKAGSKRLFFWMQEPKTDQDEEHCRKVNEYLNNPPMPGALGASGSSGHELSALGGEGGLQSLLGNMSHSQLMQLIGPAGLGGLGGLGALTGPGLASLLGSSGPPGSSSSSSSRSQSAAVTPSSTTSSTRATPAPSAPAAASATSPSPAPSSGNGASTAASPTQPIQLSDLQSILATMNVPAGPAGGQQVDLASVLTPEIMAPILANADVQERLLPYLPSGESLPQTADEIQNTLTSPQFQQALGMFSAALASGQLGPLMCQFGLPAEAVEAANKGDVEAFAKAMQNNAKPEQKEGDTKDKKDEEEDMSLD

Structure (SMILES): C=CC(=O)N[C@@H](Cc1ccccc1)C(=O)N1C/C(=C\c2ccc(Cl)c(Cl)c2)C(=O)/C(=C/c2ccc(Cl)c(Cl)c2)C1 [RA190Acr]
- labeling of / competition for RPN13 (42 kDa band) (RPN13): competes the binding of RA190B to RPN13
- potency relative to RA190 [1]: potency similar to RA190
